Laboratory results taken from PMC6886798, “Expression of myeloid Src-family kinases is associated with poor prognosis in AML and influences Flt3-ITD kinase inhibitor acquired resistance” (PLoS ONE, 2019).

How the values were obtained:
Assay in all cases: KINOMEscan
Type in all cases: binding
Conditions in all cases: 1.0 µM
PIK3CB = target: T1, PIK3CB (Homo sapiens, UniProt P42338)
T1 construct: purchased Eurofins/DiscoverX KINOMEscan scanMAX
Experimental: (§1) Kinase retention to the immobilized ligand is then measured using quantitative real-time PCR for each kinase-specific DNA barcode.

ERK1 = target: T2, ERK1 (Homo sapiens, UniProt P27361)
T2 construct: purchased Eurofins/DiscoverX KINOMEscan scanMAX
Experimental: as §1

TAOK3 = target: T3, TAOK3 (Homo sapiens, UniProt Q9H2K8)
T3 construct: purchased Eurofins/DiscoverX KINOMEscan scanMAX
Experimental: as §1

MAP4K3 = target: T4, MAP4K3 (Homo sapiens, UniProt Q8IVH8)
T4 construct: purchased Eurofins/DiscoverX KINOMEscan scanMAX
Experimental: as §1

ROCK1 = target: T5, ROCK1 (Homo sapiens, UniProt Q13464)
T5 construct: purchased Eurofins/DiscoverX KINOMEscan scanMAX
Experimental: as §1

NEK7 = target: T6, NEK7 (Homo sapiens, UniProt Q8TDX7)
T6 construct: purchased Eurofins/DiscoverX KINOMEscan scanMAX
Experimental: as §1

TLK2 = target: T7, TLK2 (Homo sapiens, UniProt Q86UE8)
T7 construct: purchased Eurofins/DiscoverX KINOMEscan scanMAX
Experimental: as §1

FLT3(D835Y) = target: T8, FLT3(D835Y) (Homo sapiens, UniProt P36888, D835Y)
T8 construct: purchased Eurofins/DiscoverX KINOMEscan scanMAX
Experimental: as §1

IKK-alpha = target: T9, IKK-alpha (Homo sapiens, UniProt O15111)
T9 construct: purchased Eurofins/DiscoverX KINOMEscan scanMAX
Experimental: as §1

MAP3K15 = target: T10, MAP3K15 (Homo sapiens, UniProt Q6ZN16)
T10 construct: purchased Eurofins/DiscoverX KINOMEscan scanMAX
Experimental: as §1

CSNK1D = target: T11, CSNK1D (Homo sapiens, UniProt P48730)
T11 construct: purchased Eurofins/DiscoverX KINOMEscan scanMAX
Experimental: as §1

[1] = target: T12, RPS6KA5(Kin.Dom.2-C-terminal) (Homo sapiens, UniProt O75582)
T12 construct: RPS6KA5(Kin.Dom.2-C-terminal); purchased Eurofins/DiscoverX KINOMEscan scanMAX
Experimental: as §1

PLK3 = target: T13, PLK3 (Homo sapiens, UniProt Q9H4B4)
T13 construct: purchased Eurofins/DiscoverX KINOMEscan scanMAX
Experimental: as §1

FLT3(K663Q) = target: T14, FLT3(K663Q) (Homo sapiens, UniProt P36888, K663Q)
T14 construct: purchased Eurofins/DiscoverX KINOMEscan scanMAX
Experimental: as §1

PRKG1 = target: T15, PRKG1 (Homo sapiens, UniProt Q13976)
T15 construct: purchased Eurofins/DiscoverX KINOMEscan scanMAX
Experimental: as §1

EPHA7 = target: T16, EPHA7 (Homo sapiens, UniProt Q15375)
T16 construct: purchased Eurofins/DiscoverX KINOMEscan scanMAX
Experimental: as §1

STK16 = target: T17, STK16 (Homo sapiens, UniProt O75716)
T17 construct: purchased Eurofins/DiscoverX KINOMEscan scanMAX
Experimental: as §1

S6K1 = target: T18, S6K1 (Homo sapiens, UniProt P23443)
T18 construct: purchased Eurofins/DiscoverX KINOMEscan scanMAX
Experimental: as §1

PIK3CA(H1047Y) = target: T19, PIK3CA(H1047Y) (Homo sapiens, UniProt P42336, H1047Y)
T19 construct: purchased Eurofins/DiscoverX KINOMEscan scanMAX
Experimental: as §1

CDK9 = target: T20, CDK9 (Homo sapiens, UniProt P50750)
T20 construct: purchased Eurofins/DiscoverX KINOMEscan scanMAX
Experimental: as §1

CAMKK1 = target: T21, CAMKK1 (Homo sapiens, UniProt Q8N5S9)
T21 construct: purchased Eurofins/DiscoverX KINOMEscan scanMAX
Experimental: as §1

PIP5K2C = target: T22, PIP5K2C (Homo sapiens, UniProt Q8TBX8)
T22 construct: purchased Eurofins/DiscoverX KINOMEscan scanMAX
Experimental: as §1

KIT = target: T23, KIT (Homo sapiens, UniProt P10721)
T23 construct: purchased Eurofins/DiscoverX KINOMEscan scanMAX
Experimental: as §1

BIKE = target: T24, BIKE (Homo sapiens, UniProt Q9NSY1)
T24 construct: purchased Eurofins/DiscoverX KINOMEscan scanMAX
Experimental: as §1

NEK6 = target: T25, NEK6 (Homo sapiens, UniProt Q9HC98)
T25 construct: purchased Eurofins/DiscoverX KINOMEscan scanMAX
Experimental: as §1

LRRK2(G2019S) = target: T26, LRRK2(G2019S) (Homo sapiens, UniProt Q5S007, G2019S)
T26 construct: purchased Eurofins/DiscoverX KINOMEscan scanMAX
Experimental: as §1

MRCKB = target: T27, MRCKB (Homo sapiens, UniProt Q9Y5S2)
T27 construct: purchased Eurofins/DiscoverX KINOMEscan scanMAX
Experimental: as §1

TAOK2 = target: T28, TAOK2 (Homo sapiens, UniProt Q9UL54)
T28 construct: purchased Eurofins/DiscoverX KINOMEscan scanMAX
Experimental: as §1

ERK5 = target: T29, ERK5 (Homo sapiens, UniProt Q13164)
T29 construct: purchased Eurofins/DiscoverX KINOMEscan scanMAX
Experimental: as §1

IRAK1 = target: T30, IRAK1 (Homo sapiens, UniProt P51617)
T30 construct: purchased Eurofins/DiscoverX KINOMEscan scanMAX
Experimental: as §1

FGFR2 = target: T31, FGFR2 (Homo sapiens, UniProt P21802)
T31 construct: purchased Eurofins/DiscoverX KINOMEscan scanMAX
Experimental: as §1

MEK4 = target: T32, MEK4 (Homo sapiens, UniProt P45985)
T32 construct: purchased Eurofins/DiscoverX KINOMEscan scanMAX
Experimental: as §1

CAMK1 = target: T33, CAMK1 (Homo sapiens, UniProt Q14012)
T33 construct: purchased Eurofins/DiscoverX KINOMEscan scanMAX
Experimental: as §1

PIK3C2B = target: T34, PIK3C2B (Homo sapiens, UniProt O00750)
T34 construct: purchased Eurofins/DiscoverX KINOMEscan scanMAX
Experimental: as §1

MARK1 = target: T35, MARK1 (Homo sapiens, UniProt Q9P0L2)
T35 construct: purchased Eurofins/DiscoverX KINOMEscan scanMAX
Experimental: as §1

MAP3K4 = target: T36, MAP3K4 (Homo sapiens, UniProt Q9Y6R4)
T36 construct: purchased Eurofins/DiscoverX KINOMEscan scanMAX
Experimental: as §1

PRKG2 = target: T37, PRKG2 (Homo sapiens, UniProt Q13237)
T37 construct: purchased Eurofins/DiscoverX KINOMEscan scanMAX
Experimental: as §1

CLK1 = target: T38, CLK1 (Homo sapiens, UniProt P49759)
T38 construct: purchased Eurofins/DiscoverX KINOMEscan scanMAX
Experimental: as §1

EPHA3 = target: T39, EPHA3 (Homo sapiens, UniProt P29320)
T39 construct: purchased Eurofins/DiscoverX KINOMEscan scanMAX
Experimental: as §1

DAPK2 = target: T40, DAPK2 (Homo sapiens, UniProt Q9UIK4)
T40 construct: purchased Eurofins/DiscoverX KINOMEscan scanMAX
Experimental: as §1

ICK = target: T41, ICK (Homo sapiens, UniProt Q9UPZ9)
T41 construct: purchased Eurofins/DiscoverX KINOMEscan scanMAX
Experimental: as §1

SgK110 = target: T42, SgK110 (Homo sapiens, UniProt P0C264)
T42 construct: purchased Eurofins/DiscoverX KINOMEscan scanMAX
Experimental: as §1

NDR1 = target: T43, NDR1 (Homo sapiens, UniProt Q15208)
T43 construct: purchased Eurofins/DiscoverX KINOMEscan scanMAX
Experimental: as §1

T12 sequence (O75582 426-687 limits assumed): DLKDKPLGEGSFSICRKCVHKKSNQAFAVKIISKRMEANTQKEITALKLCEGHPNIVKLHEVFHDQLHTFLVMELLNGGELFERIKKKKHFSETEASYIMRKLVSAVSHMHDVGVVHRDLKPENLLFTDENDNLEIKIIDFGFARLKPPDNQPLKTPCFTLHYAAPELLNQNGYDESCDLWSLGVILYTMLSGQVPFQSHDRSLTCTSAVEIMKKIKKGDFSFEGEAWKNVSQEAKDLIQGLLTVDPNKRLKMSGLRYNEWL
T7 sequence (Q86UE8 whole entry): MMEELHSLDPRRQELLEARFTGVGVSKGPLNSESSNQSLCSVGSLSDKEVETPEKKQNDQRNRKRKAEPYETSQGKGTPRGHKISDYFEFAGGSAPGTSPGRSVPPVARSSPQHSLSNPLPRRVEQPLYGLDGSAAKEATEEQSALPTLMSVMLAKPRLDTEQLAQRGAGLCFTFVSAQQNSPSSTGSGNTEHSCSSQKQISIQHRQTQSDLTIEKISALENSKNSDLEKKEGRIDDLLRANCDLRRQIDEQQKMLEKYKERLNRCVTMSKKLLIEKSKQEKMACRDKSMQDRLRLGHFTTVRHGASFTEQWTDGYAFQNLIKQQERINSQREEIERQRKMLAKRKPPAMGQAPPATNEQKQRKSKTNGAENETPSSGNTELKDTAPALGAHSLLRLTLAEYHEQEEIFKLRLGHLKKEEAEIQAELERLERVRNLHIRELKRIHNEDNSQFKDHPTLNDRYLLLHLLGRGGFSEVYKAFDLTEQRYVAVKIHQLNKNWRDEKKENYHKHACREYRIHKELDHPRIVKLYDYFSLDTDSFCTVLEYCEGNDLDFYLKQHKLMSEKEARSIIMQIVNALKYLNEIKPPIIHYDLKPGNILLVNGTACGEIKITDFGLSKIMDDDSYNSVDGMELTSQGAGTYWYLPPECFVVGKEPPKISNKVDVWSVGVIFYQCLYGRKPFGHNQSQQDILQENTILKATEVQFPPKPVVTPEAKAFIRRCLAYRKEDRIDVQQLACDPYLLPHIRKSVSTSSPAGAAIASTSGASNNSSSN
T6 sequence (Q8TDX7 whole entry): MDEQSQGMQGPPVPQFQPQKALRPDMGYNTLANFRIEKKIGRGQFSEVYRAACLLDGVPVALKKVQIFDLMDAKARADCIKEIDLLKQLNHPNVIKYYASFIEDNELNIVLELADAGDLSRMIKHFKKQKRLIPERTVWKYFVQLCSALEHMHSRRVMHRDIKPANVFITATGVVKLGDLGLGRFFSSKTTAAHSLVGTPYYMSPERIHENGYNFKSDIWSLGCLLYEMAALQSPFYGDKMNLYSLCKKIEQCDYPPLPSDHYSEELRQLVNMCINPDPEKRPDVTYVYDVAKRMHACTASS
T40 sequence (Q9UIK4 whole entry): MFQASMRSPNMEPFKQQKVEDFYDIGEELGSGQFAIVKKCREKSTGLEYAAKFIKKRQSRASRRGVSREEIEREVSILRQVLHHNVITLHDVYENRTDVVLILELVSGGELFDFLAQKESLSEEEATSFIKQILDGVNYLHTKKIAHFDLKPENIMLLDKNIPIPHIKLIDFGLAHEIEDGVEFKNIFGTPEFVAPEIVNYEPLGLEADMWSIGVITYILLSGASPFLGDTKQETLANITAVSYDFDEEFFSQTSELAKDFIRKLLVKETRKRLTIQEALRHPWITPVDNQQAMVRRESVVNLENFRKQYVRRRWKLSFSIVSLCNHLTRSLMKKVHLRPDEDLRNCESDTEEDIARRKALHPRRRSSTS
T25 sequence (Q9HC98 whole entry): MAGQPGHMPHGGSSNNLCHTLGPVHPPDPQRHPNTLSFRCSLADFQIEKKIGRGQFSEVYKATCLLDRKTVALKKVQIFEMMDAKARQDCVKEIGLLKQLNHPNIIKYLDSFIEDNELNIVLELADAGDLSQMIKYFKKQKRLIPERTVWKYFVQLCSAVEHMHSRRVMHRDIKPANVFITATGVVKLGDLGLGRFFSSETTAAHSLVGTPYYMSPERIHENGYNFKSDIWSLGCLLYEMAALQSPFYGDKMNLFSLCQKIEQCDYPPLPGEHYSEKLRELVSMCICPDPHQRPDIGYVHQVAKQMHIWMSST
T34 sequence (O00750 whole entry): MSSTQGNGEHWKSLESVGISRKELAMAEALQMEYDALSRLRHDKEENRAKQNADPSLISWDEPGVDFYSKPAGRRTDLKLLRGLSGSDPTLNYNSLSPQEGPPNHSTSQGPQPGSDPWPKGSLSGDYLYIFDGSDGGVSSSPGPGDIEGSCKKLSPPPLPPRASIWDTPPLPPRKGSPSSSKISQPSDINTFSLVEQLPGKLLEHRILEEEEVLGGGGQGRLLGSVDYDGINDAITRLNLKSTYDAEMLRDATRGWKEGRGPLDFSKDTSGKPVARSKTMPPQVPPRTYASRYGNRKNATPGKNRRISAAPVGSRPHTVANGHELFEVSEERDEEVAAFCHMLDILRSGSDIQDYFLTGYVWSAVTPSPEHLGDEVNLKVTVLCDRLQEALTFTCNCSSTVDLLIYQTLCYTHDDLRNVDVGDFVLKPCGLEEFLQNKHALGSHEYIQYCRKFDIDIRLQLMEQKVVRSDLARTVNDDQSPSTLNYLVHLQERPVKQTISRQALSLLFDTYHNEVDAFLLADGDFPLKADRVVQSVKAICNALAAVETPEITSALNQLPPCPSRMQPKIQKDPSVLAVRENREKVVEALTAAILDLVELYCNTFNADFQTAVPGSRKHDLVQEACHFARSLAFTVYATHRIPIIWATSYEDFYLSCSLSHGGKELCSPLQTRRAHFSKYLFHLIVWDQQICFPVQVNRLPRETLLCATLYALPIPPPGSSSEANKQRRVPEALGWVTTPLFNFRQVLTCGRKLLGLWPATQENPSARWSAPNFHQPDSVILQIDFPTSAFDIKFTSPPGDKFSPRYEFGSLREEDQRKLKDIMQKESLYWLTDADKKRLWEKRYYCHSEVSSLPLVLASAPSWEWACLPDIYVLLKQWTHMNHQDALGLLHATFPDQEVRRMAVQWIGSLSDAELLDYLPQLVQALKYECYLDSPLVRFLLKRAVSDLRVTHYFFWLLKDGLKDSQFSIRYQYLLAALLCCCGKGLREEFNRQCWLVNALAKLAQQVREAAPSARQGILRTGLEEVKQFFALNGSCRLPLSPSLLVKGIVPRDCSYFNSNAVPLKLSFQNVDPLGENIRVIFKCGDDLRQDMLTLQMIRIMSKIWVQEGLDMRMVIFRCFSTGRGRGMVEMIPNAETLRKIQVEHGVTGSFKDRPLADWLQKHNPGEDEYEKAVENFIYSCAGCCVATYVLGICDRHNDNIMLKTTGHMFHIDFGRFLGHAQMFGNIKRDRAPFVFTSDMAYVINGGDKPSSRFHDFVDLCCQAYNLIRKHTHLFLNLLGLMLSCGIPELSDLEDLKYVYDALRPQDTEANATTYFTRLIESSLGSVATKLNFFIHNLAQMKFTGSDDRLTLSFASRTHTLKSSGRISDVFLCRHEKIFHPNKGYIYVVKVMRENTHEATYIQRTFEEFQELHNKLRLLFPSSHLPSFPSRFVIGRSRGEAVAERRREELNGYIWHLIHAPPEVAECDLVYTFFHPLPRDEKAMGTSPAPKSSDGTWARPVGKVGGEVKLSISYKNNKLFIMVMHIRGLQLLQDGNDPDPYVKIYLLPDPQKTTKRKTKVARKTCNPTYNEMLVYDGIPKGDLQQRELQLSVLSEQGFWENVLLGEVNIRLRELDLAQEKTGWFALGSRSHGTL
T15 sequence (Q13976 whole entry): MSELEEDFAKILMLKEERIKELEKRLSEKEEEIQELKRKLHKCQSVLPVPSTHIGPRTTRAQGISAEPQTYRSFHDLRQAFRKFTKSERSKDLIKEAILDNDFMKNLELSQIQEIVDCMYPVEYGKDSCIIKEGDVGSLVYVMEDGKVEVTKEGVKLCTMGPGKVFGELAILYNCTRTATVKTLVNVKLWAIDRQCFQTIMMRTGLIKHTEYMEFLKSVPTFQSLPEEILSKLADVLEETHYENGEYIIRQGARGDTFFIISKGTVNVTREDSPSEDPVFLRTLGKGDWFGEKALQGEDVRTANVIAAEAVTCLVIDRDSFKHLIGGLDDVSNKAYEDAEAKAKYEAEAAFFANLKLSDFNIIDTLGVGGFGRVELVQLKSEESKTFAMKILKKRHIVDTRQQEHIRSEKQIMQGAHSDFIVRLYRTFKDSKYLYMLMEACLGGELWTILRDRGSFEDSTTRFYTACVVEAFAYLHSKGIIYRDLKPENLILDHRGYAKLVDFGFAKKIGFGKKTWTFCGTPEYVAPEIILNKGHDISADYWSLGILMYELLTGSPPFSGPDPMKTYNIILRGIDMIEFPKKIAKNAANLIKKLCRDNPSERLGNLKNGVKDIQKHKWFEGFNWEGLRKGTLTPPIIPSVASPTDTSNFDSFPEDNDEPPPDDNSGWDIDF
T17 sequence (O75716 whole entry): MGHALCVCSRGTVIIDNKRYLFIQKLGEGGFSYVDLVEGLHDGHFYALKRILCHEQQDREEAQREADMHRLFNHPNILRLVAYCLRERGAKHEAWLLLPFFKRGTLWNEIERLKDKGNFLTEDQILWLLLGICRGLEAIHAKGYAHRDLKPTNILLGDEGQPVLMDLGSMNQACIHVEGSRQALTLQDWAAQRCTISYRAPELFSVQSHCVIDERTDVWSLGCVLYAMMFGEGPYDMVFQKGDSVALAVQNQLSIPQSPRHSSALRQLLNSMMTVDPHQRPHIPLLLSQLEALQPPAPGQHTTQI
T42 sequence (P0C264 whole entry): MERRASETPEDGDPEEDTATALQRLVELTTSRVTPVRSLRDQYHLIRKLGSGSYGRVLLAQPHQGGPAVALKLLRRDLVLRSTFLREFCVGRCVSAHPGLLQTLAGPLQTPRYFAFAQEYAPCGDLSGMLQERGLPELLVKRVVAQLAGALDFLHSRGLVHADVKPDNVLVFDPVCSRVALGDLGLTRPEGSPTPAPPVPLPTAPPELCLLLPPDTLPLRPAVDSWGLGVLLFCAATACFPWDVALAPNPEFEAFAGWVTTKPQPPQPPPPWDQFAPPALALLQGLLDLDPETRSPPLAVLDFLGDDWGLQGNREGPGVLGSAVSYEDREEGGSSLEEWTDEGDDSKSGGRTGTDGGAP

CN1CCN(C2CCC(n3cc(-c4ccc(Oc5ccccc5)cc4)c4c(N)ncnc43)CC2)CC1 (stereo not shown) [A-419259]
% Control (PIK3CB): 64% | % Control (ERK1): 100% | % Control (TAOK3): 100% | % Control (MAP4K3): 32% | % Control (ROCK1): 90% | % Control (NEK7): 91% | % Control (TLK2): 100% | % Control (FLT3(D835Y)): 7.6% | % Control (IKK-alpha): 90% | % Control (MAP3K15): 79% | % Control (CSNK1D): 8.3% | % Control [1]: 96% | % Control (PLK3): 72% | % Control (FLT3(K663Q)): 5.6% | % Control (PRKG1): 100% | % Control (EPHA7): 100% | % Control (STK16): 100% | % Control (S6K1): 27% | % Control (PIK3CA(H1047Y)): 99% | % Control (CDK9): 65% | % Control (CAMKK1): 100% | % Control (PIP5K2C): 95% | % Control (KIT): 0.15% | % Control (BIKE): 80% | % Control (NEK6): 65% | % Control (LRRK2(G2019S)): 100% | % Control (MRCKB): 100% | % Control (TAOK2): 85% | % Control (ERK5): 58% | % Control (IRAK1): 98% | % Control (FGFR2): 39% | % Control (MEK4): 89% | % Control (CAMK1): 92% | % Control (PIK3C2B): 10% | % Control (MARK1): 82% | % Control (MAP3K4): 92% | % Control (PRKG2): 100% | % Control (CLK1): 100% | % Control (EPHA3): 95% | % Control (DAPK2): 98% | % Control (ICK): 97% | % Control (SgK110): 100% | % Control (NDR1): 68%
